In US20110034990A1, “BIOCORRODIBLE IMPLANT WITH ACTIVE COATING” (priority 2009, published 2011):

Excerpt: It has been discovered that squalene is a particularly suitable substance for use in some invention embodiments. […] Thus, for example, lycopene and ubichinon are toxic in concentrations of 10 μmol/l. Squalene, on the other hand, is not toxic, even in concentrations of 100 μmol/l.

Row | Compound | concentration at which the substance is toxic
1 | CC(C)=CCCC(C)=CCCC(C)=CCCC=C(C)CCC=C(C)CCC=C(C)C [Squalene, 2,6,10,15,19,23-hexamethyl-2,6,10,14,18,22-tetracosahexaene] | > 100 µM
2 | CC(C)=CCC/C(C)=C/C=C/C(C)=C/C=C/C(C)=C/C=C/C=C(C)/C=C/C=C(C)/C=C/C=C(\C)CCC=C(C)C [lycopene] | 10 µM
3 | ubichinon | 10 µM
